Reference: patent publication US11364211B2, “Methods for selecting phosphatase selective and non-selective phosphatase inhibitors” (MEDICAL RESEARCH COUNCIL, priority 2015, dated 2022)
“Also recorded” adds a separate entry of the source.

How the values were obtained:
PPP1R15A [1] = assay: Induction of PPP1R15A expression in cells (immunoblot); type: cell-based, human; details: absence of stress
Protocol: For immunoblots, HeLa cells (80,000 cells/ml) were plated in 12-well plates 24 hours before each experiment. Immediately after the indicated treatments, cells were lysed in 75 μl Laemmli Buffer, boiled at 95° C. for 5 minutes and sonicated. Proteins were separated and analysed as described (Tsaytler et al., Science, 332, 91-94, 2011) with the following antibodies: phospho-elf2α [pS52] and PPP1R15A/GADD34 (10449-1-AP; ProteinTech Group, 1/1000 dilution).
(§1) Cells (90,000 cells/ml) were plated in a 24-well plate and treated as indicated. At the end of treatment cells were lysed in 150 μl Laemmli Buffer. Lysates were boiled at 95° C. for 5 minutes, sonicated and resolved on 4-12% Bolt Bis-Tris Plus Gels (Thermo Fisher Scientific). Proteins were transferred to the nitrocellulose membrane using the iBlot 2 system (Thermo Fisher Scientific) and analysed using the following antibodies: e-IF2α-P (44-728G, Thermo Fisher Scientific, 1:1000), e-IF2α (ab5369, Abcam, 1:1000), tubulin (T5168, Sigma-Aldrich, 1:4000), BiP (610978, BD Biosciences Pharmingen, 1:1000), ATF4 (sc-200, Santa Cruz Biotechnology, 1:500), Ppp1r15a (10449-1-AP, Proteintech, 1:1000) and Ppp1r15b (14634-1-AP, Proteintech, 1:1000). Proteins were visualized using ECL Prime (GE Healthcare).

ATF4 = assay: Induction of ATF4 expression in cells (immunoblot); type: cell-based, human; details: HeLa cells, 10 μM
Protocol: as §1

PPP1R15A [2] = assay: Induction of PPP1R15A in mouse brain (qPCR); type: in vivo; details: mice, indicated doses
Protocol: RNA from brain was extracted in trizol (Life Technologies). RNA concentration was measured using a NANODROP1000 spectrophotometer (Thermo Fisher Scientific), and 1 μg was reverse transcribed to cDNA using a SuperScript reverse transcriptase (Life Technologies). Quantitative PCR with primers GAPDH (f): […], GAPDH (r): […], PPP1R15A (f): […];
and PPP1R15A (r): […] was performed using SYBR® Select Master Mix (Ref 4472908, applied biosystems) on a Corbett Rotor-Gene version 6000. Expression of each gene was normalized to the housekeeping gene GAPDH and expressed as fold change calculated using Paffl equation.
PPP1R15A induction was assessed by qPCR on total mRNA extracted from brains of mice treated with the indicated doses of compound of Example 1.

Structure (SMILES): [H]/N=C(\N)NN=Cc1cccc(Cl)c1Cl [Example 1, (E)-2-(2,3-dichlorobenzylidene)hydrazine-1-carboximidamide]
- expression of PPP1R15A (R15A) in cells (PPP1R15A [1]): induce PPP1R15A; also recorded: induces expression of R15A
- expression of PPP1R15A (R15A) in cells (PPP1R15A [1]; listed as TST3): induced expression
- expression of ATF4 in cells (ATF4): induced expression
- induction of PPP1R15A mRNA in brain (PPP1R15A [2]): induced PPP1R15A; also recorded: induction of R15A
